Laboratory results: patent US12522584B2, “3,4-dihydroisoquinoline compound and use thereof” (CSPC Zhongqi Pharmaceutical Technology (Shijiazhuang) Co., …, priority 2020, dated 2026)
Marks after values point to notes of the source that are not given here.

Key:
MV4-11 xenografts = test: In vivo efficacy in MV4-11 subcutaneous xenograft model; conditions: for d9 Tumor Volume (mm^3): 9th day after administration; for Body Weight Change (%): 11 consecutive days, NOD-SCID mice; for Tumor Weight / Tumor weight inhibition rate (%): 11 days; for Tumor Weight: tumors dissected at end; for Tumor weight inhibition rate (%): versus vehicle group; for d0 Tumor Volume (mm^3): d0, before grouping for administration (baseline); for RTV (d9): relative tumor volume = d9/d0 tumor volume
Protocol: Experimental female NOD-SCID mice, SPF grade, 4 to 5 weeks, were purchased from Beijing Vital River Laboratory Animal Technology Co., Ltd. The mice were intraperitoneally injected with cyclophosphamide at a dose of 100 mg/kg one day before cell inoculation. The human acute monocytic leukemia cell line MV4-11 (1×10^7/0.1 ml/mouse) was subcutaneously inoculated into forelimb axilla of mice to establish a subcutaneous xenograft model. When the tumor volumes reached about 110 mm^3 (10 days after inoculation), the mice were equally grouped according to the tumor volume, with 5 mice in each group, i.e., vehicle group (2% DMSO+98% (0.2 g/mL) hydroxypropyl-β-cyclodextrin) and test drug groups. For the test drug groups, the dose of administration was 100 mg/kg, the dosing volume was 10 mL/kg, the dosing frequency was BID, the tumor diameters were measured twice per week, and the data was recorded. The mice were administered for 11 consecutive days. When the experiment ended, the tumors were dissected and weighed.

[1] = test system: human acute monocytic leukemia cell line MV4-11; test: MV4-11 MTT cell growth inhibition; format: cell-based; conditions: 144 h, MV4-11 cells, MTT on Day 6
Protocol: The complete medium required for the culture of human acute monocytic leukemia cell line MV4-11 (Shanghai Cell Bank) for experiment was IMDM (Cat NO. 12440-053, gibco) supplemented with 10% FBS (Cat NO. SA311.02, cellmax). The cells were cultured in an incubator at 37° C. with 5% CO2. The experiment reagents included dimethyl sulfoxide (Tianjin Kemiou Chemical Reagent Co., Ltd.) and MTT (THIAZOLYL BLUE TETRAZOLIUM BROMIDE, CAS. NO. 298-93-1, VWR). The control compound GSK3326595 for experiment was homemade or commercially available. The test compound was encapsulated and stored at 4° C.
Dimethyl sulfoxide was used as a vehicle to fully dissolve the test compound, thereby formulating a stock solution at a concentration of 5×10^−2 mol/L. The stock solution was stored at −20° C. With the complete medium as diluent, the test compound was subjected to gradient dilution to afford dilutions at different concentrations for standby application. In a 96-well culture plate, the suspension of the human acute monocytic leukemia cell line MV4-11 in the complete medium, at a volume of 100 μL/well (2×10^3 cells/well), was added. Afterwards, the dilutions at different concentrations of the corresponding test compounds (100 μL/well) were added, respectively. Each of the test compounds was provided with 8 concentration gradients and three replicates were used for each concentration. The plates were incubated in an incubator at 37° C. with 5% CO2. On Day 6, the plate was treated with MTT (20 μL/well) and incubated for 4 h in an incubator at 37° C. with 5% CO2. The supernatant was discarded. Dimethyl sulfoxide (150 μL/well) was added and mixed well by shaking. The OD value at 550 nm was measured with a microplate reader. Wells containing only cell suspensions without the test compounds were control wells, and wells containing only complete media were blank wells. The cell growth inhibition rate was calculated according to the following equation: Inhibition rate=(OD valuecontrol well−OD valuesample well)/(OD valuecontrol well−OD valueblank well)×100%. According to the inhibition rate at each concentration, the half maximal inhibitory concentration IC50 value was calculated using the SPSS software. 2. Enzymatic Experiment

PRMT5 = PRMT5 (Homo sapiens (Human), UniProt O14744); test: radiometric assay for PRMT5 based on FlashPlate technology; format: biochemical; conditions: PRMT5 5 nM, [3H]-SAM, 60 min at 25° C.; read-out: Enzymology (IC50)
Protocol: The radiometric assay for PRMT5 based on FlashPlate technology was adopted to determine IC50 of the test compound.
After dissolved in dimethyl sulfoxide respectively, the test compounds were added into an Echo Qualified 384-well plate and diluted to the desired concentrations. The diluted test compounds were transferred from the Echo Qualified 384-well plate to a 384-well reaction plate using an Echo 550 instrument, and dimethyl sulfoxide was transferred into both the control and blank wells. PRMT5 was added to 1×reaction buffer (including 10 mM Tris-HCl; pH 8.0; 0.01% Tween-20; 1 mM DTT) to form a 1.67×enzyme solution (at an enzyme concentration of 5 nM). A polypeptide substrate and [3H]-SAM were added to 1× reaction buffer to form a 2.5× substrate solution (the terminal concentrations of the substrates were 100 nM and 250 nM, respectively). At a volume of 15 μL/well, the 1.67× enzyme solution was added into wells of the 384-well reaction plate. In case of the blank wells, the enzyme solution was replaced with 15 μL of the 1× reaction buffer. The reaction plate was centrifuged at 1000 rpm for 1 min, and incubated at room temperature for 15 min. To each well of the 384-well reaction plate, 10 μL of the 2.5× substrate solution was added, centrifuged at 1000 rpm for 1 min, and reacted at 25° C. for 60 min. To each well of the 384-well reaction plate, 5 μL of reaction stop solution (which was […] cold SAM solution) was added to terminate the reaction. From each well of the test plate, 25 μL was measured and transferred to Flashplate and left at room temperature for 1 h. Thereafter, the Flashplate was washed with 0.1% Tween-20 solution three times. Readings were taken with MicroBeta 2. The data was converted into the inhibition rate data. Inhibition rate=(conversion ratecontrol well−conversion ratecompound well)/(conversion ratecontrol well−conversion rateblank well)×100%. The IC50curves were fitted using XLFit5.4.0.8. The fitting equation was as follows:Y=Bottom+(Top-Bottom)/(1+(IC50/X)^HillSlope).

[2] = Pharmacokinetic experiment in SD rats; conditions: male, rat, plasma, po, 25 mg/kg
Protocol: (§1) SD rats (male, 180 g to 200 g, Beijing Vital River Laboratory Animal Technology Co., Ltd.) were administered with the test compounds (solvent: 2% DMSO+98% (0.2 g/mL) hydroxypropyl-β-cyclodextrin, dosing volume: 5 mL/kg) by gavage. Blood was collected from the orbits of the rats at different points in time (0.25, 0.5, 1, 2, 4, 8, 24 h) after administration. The collected whole blood was anticoagulated with heparin sodium and centrifuged at 3000 g to obtain rat plasma samples, and methanol was added thereto to precipitate proteins. The drug concentration in rat plasma after administration was determined by HIPLC-MS/MS method. A drug concentration-time curve was plotted and the pharmacokinetic parameters were calculated. Pharmacokinetic behaviors of the compounds after administration in rats were described by means of the parameter estimation of non-compartmental model based on statistical moment theory.

in vivo = conditions: male, SD, rat, po, 25 mg/kg
Protocol: as §1

Chain of PRMT5 (O14744 whole entry): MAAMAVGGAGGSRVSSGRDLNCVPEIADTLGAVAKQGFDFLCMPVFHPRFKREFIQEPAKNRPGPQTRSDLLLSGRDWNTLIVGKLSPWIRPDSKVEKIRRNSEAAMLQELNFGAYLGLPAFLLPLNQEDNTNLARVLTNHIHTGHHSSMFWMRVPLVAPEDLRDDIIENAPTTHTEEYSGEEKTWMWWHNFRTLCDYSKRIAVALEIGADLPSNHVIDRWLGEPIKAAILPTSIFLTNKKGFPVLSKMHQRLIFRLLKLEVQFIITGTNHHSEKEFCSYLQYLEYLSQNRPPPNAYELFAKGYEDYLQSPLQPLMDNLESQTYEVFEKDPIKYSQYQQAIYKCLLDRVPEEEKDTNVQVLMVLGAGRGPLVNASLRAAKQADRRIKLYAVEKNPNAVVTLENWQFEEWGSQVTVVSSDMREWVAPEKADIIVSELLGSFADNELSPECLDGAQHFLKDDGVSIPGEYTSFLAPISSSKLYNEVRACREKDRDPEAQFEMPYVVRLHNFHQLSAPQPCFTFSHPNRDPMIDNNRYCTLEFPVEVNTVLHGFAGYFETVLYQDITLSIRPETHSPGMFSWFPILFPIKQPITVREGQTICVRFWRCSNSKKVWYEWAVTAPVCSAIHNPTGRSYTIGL
Chain of PRMT5 (Q9BQA1 whole entry partner): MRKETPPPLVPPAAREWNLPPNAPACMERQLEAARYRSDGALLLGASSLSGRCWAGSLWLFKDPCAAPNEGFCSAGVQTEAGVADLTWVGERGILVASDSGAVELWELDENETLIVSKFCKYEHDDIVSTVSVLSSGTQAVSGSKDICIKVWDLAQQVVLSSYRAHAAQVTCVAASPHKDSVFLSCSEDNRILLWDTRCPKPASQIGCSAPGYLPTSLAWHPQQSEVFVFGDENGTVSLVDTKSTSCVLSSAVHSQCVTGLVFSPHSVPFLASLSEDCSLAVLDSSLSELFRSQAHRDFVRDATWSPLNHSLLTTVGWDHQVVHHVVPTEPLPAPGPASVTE

| SMILES | d9 Tumor Volume (mm^3) (MV4-11 xenografts; 100 mg/kg BID) | Tumor Weight (MV4-11 xenografts; 100 mg/kg BID) [g] | Tumor weight inhibition rate (%) (MV4-11 xenografts; 100 mg/kg BID) | d0 Tumor Volume (mm^3) (MV4-11 xenografts) | RTV (d9) (MV4-11 xenografts; 100 mg/kg BID) | IC50 [1] [nM] | IC50 (PRMT5) [nM] | AUC(0-t) [2] [ng·h/mL] | Cmax [2] [ng/mL] | Tmax [2] [min] | further results |
| --- | --- | --- | --- | --- | --- | --- | --- | --- | --- | --- | --- |
| CC(=O)N1CCC(Nc2cc(C(=O)NC[C@H](O)CN3CCc4ccccc4C3)ncn2)CC1 [GSK3326595, reference compound] | 135 ± 43** mm^3 | 0.1124 ± 0.0764 | 84.5 | 165.2 ± 23.1 | 0.8 ± 0.2 | – | – | – | – | – | Body Weight Change (%) (MV4-11 xenografts; 100 mg/kg BID): −6.8% |
| O=C(NC[C@H](O)CN1CCc2ccccc2C1)c1cc(NC2CCN(C(=O)C(=NO)C3CC3)CC2)ncn1 [PR-1, (S)-6-((1-(2-cyclopropyl-2-(hydroxyimino)acetyl)piperidin-4-yl)amino)-N-(3-(3,4-dihydroisoquinolin-2(1H)-yl)-2-hydroxypropyl)pyrimidine-4-carboxamide] | – | – | – | – | – | 5.02 | 13 | – | – | – | – |
| CON=C(C(=O)N1CCC(Nc2cc(C(=O)NC[C@H](O)CN3CCc4ccccc4C3)ncn2)CC1)C1CC1 [PR-2, (S)-6-((1-(2-cyclopropyl-2-(methoxyimino)acetyl)piperidin-4-yl)amino)-N-(3-(3,4-dihydroisoquinolin-2(1H)-yl)-2-hydroxypropyl)pyrimidine-4-carboxamide] | – | – | – | – | – | – | 13 | 821 | 473 | 30 | – |
| CC(=NO)C(=O)N1CCC(Nc2cc(C(=O)NC[C@H](O)CN3CCc4ccccc4C3)ncn2)CC1 [PR-3, (S)-N-(3-(3,4-dihydroisoquinolin-2(1H)-yl)-2-hydroxypropyl)-6-((1-(2-(hydroxyimino)propanoyl)piperidin-4-yl)amino)pyrimidine-4-carboxamide] | – | – | – | – | – | 1.24 | 15 | – | – | – | – |
| CON=C(C)C(=O)N1CCC(Nc2cc(C(=O)NC[C@H](O)CN3CCc4ccccc4C3)ncn2)CC1 [PR-4, (S)-N-(3-(3,4-dihydroisoquinolin-2(1H)-yl)-2-hydroxypropyl)-6-((1-(2-(methoxyimino)propanoyl)piperidin-4-yl)amino)pyrimidine-4-carboxamide] | 55.7 ± 19.7***## mm^3 | 0.0648 ± 0.0267 | 91.1 | 165.3 ± 27.5 | 0.4 ± 0.1 | 6.77 | – | – | – | – | Body Weight Change (%) (MV4-11 xenografts; 100 mg/kg BID): −6.1% |
| CON=C(CC(C)C)C(=O)N1CCC(Nc2cc(C(=O)NC[C@H](O)CN3CCc4ccccc4C3)ncn2)CC1 [PR-5, (S)-N-(3-(3,4-dihydroisoquinolin-2(1H)-yl)-2-hydroxypropyl)-6-((1-(2-(methoxyimino)-4-methylpentanoyl)piperidin-4-yl)amino)pyrimidine-4-carboxamide] | – | – | – | – | – | 1.44 | 23 | 674 | 660 | 20 | – |
| O=C(NC1CC2(C1)CC(Nc1cc(C(=O)NC[C@H](O)CN3CCc4ccccc4C3)ncn1)C2)C(=NO)C1CC1 (stereo partly drawn) [PR-6, (S)-6-((6-(2-cyclopropyl-2-(hydroxyimino)acetamido)spiro[3.3]heptan-2-yl)amino)-N-(3-(3,4-dihydroisoquinolin-2(1H)-yl)-2-hydroxypropyl)pyrimidine-4-carboxamide] | – | – | – | – | – | 1.9 | 16 | – | – | – | – |
| CON=C(C(=O)NC1CC2(C1)CC(Nc1cc(C(=O)NC[C@H](O)CN3CCc4ccccc4C3)ncn1)C2)C1CC1 (stereo partly drawn) [PR-7, (S)-6-((6-(2-cyclopropyl-2-(methoxyimino)acetamido)spiro[3.3]heptan-2-yl)amino)-N-(3-(3,4-dihydroisoquinolin-2(1H)-yl)-2-hydroxypropyl)pyrimidine-4-carboxamide] | 60.2 ± 20.1***## mm^3 | 0.0710 ± 0.0353 | 90.2 | 165.6 ± 28.1 | 0.4 ± 0.1 | 1.04 | 14 | 2540 | 1120 | 40 | Body Weight Change (%) (MV4-11 xenografts; 100 mg/kg BID): −6.9% |
| CC(=NO)C(=O)NC1CC2(C1)CC(Nc1cc(C(=O)NC[C@H](O)CN3CCc4ccccc4C3)ncn1)C2 (stereo partly drawn) [PR-8, (S)-N-(3-(3,4-dihydroisoquinolin-2(1H)-yl)-2-hydroxypropyl)-6-((6-(2-(hydroxyimino)propanamido)spiro[3.3]heptan-2-yl)amino)pyrimidine-4-carboxamide] | – | – | – | – | – | 0.98 | 19 | – | – | – | – |
| CON=C(C)C(=O)NC1CC2(C1)CC(Nc1cc(C(=O)NC[C@H](O)CN3CCc4ccccc4C3)ncn1)C2 (stereo partly drawn) [PR-9, (S)-N-(3-(3,4-dihydroisoquinolin-2(1H)-yl)-2-hydroxypropyl)-6-((6-(2-(methoxyimino)propanamido)spiro[3.3]heptan-2-yl)amino)pyrimidine-4-carboxamide] | – | – | – | – | – | 6.84 | 23 | 1270 | 875 | 30 | – |
| CON=C(C)C(=O)N1CC2(CC(Nc3cc(C(=O)NC[C@H](O)CN4CCc5ccccc5C4)ncn3)C2)C1 [PR-10, (S)-N-(3-(3,4-dihydroisoquinolin-2(1H)-yl)-2-hydroxypropyl)-6-((2-(2-(methoxyimino)propanoyl)-2-azaspiro[3.3]heptan-6-yl)amino)pyrimidine-4-carboxamide] | 34.3 ± 29.2**## mm^3 | 0.0153 ± 0.0105 | 97.9 | 164.8 ± 32.5 | 0.2 ± 0.2 | 0.664 | 16 | – | – | – | AUC(0-t) (in vivo): 2040 ng·h/mL; Cmax (in vivo): 1340 ng/mL; Tmax (in vivo): 25 min; animal death / drug toxicity observation (MV4-11 xenografts; 100 mg/kg BID, one animal died due to incorrect gavage): the death was not caused by drug toxicity |
| O=C(NC[C@H](O)CN1CCc2ccccc2C1)c1cc(NC2CC3(C2)CN(C(=O)C(=NO)C2CC2)C3)ncn1 [PR-11, (S)-6-((2-(2-cyclopropyl-2-(hydroxyimino)acetyl)-2-azaspiro[3.3]heptan-6-yl)amino)-N-(3-(3,4-dihydroisoquinolin-2(1H)-yl)-2-hydroxypropyl)pyrimidine-4-carboxamide] | – | – | – | – | – | 1.4 | 18 | – | – | – | – |
| CON=C(C(=O)N1CC2(CC(Nc3cc(C(=O)NC[C@H](O)CN4CCc5ccccc5C4)ncn3)C2)C1)C1CC1 [PR-12, (S)-6-((2-(2-cyclopropyl-2-(methoxyimino)acetyl)-2-azaspiro[3.3]heptan-6-yl)amino)-N-(3-(3,4-dihydroisoquinolin-2(1H)-yl)-2-hydroxypropyl)pyrimidine-4-carboxamide] | – | – | – | – | – | 0.691 | 2.7 | – | – | – | – |
